# Earlier results in patent US10172902B2, “Ocular eyelid scrub composition for the treatment of demodex blepharitis” (LUNOVUS, LLC, priority 2014, dated 2019).
# Tested on: ocular Demodex
# Settings: solutions, suspensions, sprays, lotions, gels, pastes, cleansers, creams or ointments
smiles,measurement,value
CC1=CCC(O)(C(C)C)CC1 (stereo not shown) [terpinen-4-ol],treating an ocular Demodex infestation or Demodex-induced blepharitis,effective
